This note sets out measurements from the NIST ThermoML archive (doi:10.1007/s10765-012-1159-3).

Numbers after ± are expanded uncertainties.

The conditions of the data set: 101.33 kPa, Liquid; for kinematic viscosity: Capillary tube (Ostwald / Ubbelohde) method; for mass density: Vibrating tube method.

For `C1CCCCC1` [cyclohexane], the kinematic viscosity is, setting by setting: (293.15 K) 1.256e-06 ± 1.1e-08 m2/s; (298.15 K) 1.154e-06 ± 1e-08 m2/s. Moreover, the mass density reads like this: (293.15 K) 778.7 ± 0.6 kg/m3; (298.15 K) 773.9 ± 0.6 kg/m3.

Consider `CCc1ccccc1` [ethylbenzene], for which, where the note is “293.15 K”, the kinematic viscosity was 7.767e-07 ± 7.4e-09 m2/s and the mass density is on record as 867.1 ± 0.6 kg/m3. Also, under “298.15 K”, the kinematic viscosity was determined as 7.323e-07 ± 7.2e-09 m2/s and the mass density was 862.7 ± 0.6 kg/m3.

As for `CCCCCC` [hexane], for the setting “293.15 K”, the kinematic viscosity is 4.7e-07 ± 5.6e-09 m2/s and the mass density came to 659.4 ± 0.6 kg/m3. For the setting “298.15 K”, the kinematic viscosity amounted to 4.49e-07 ± 5.5e-09 m2/s and the mass density is 654.9 ± 0.6 kg/m3.

On to `CCCCCCCC` [octane], for which, under “293.15 K”, the kinematic viscosity is 7.734e-07 ± 7.4e-09 m2/s and the mass density is listed as 702.5 ± 0.6 kg/m3. Further, under “298.15 K”, the kinematic viscosity worked out at 7.313e-07 ± 7.1e-09 m2/s and the mass density is 698.5 ± 0.6 kg/m3.

For `Cc1ccccc1` [toluene], for the setting “293.15 K”, the kinematic viscosity is 6.8e-07 ± 6.8e-09 m2/s and the mass density was 866.7 ± 0.6 kg/m3. In addition, for the setting “298.15 K”, the kinematic viscosity is 6.41e-07 ± 6.6e-09 m2/s and the mass density is listed as 862 ± 0.6 kg/m3.

For orientation: mass density means mass per unit of volume.
